How the values were obtained:
[1] = tested on: human washed platelets; test: Inhibition of ADP-induced aggregation of human washed platelets; format: cell-based; conditions: Platelet, read-out: IC50, inhibition of platelet aggregation
[2] = target: T1, hA3 AR (Homo sapiens, UniProt P0DMS8); test: Radioligand binding at hA3 AR
T1 sequence (P0DMS8 1-318): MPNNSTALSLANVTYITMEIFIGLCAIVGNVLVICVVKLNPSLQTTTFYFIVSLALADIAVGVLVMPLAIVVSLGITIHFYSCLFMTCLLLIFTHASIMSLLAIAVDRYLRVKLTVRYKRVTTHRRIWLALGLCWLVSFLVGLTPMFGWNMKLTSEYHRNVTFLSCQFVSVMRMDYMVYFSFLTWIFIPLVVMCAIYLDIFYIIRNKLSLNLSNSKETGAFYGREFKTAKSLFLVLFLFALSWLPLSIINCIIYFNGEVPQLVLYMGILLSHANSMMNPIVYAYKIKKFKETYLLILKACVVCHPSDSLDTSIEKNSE

[3] = target: T2, hA1 AR (Homo sapiens, UniProt P30542); test: Radioligand binding at hA1 AR
T2 sequence (P30542 1-326): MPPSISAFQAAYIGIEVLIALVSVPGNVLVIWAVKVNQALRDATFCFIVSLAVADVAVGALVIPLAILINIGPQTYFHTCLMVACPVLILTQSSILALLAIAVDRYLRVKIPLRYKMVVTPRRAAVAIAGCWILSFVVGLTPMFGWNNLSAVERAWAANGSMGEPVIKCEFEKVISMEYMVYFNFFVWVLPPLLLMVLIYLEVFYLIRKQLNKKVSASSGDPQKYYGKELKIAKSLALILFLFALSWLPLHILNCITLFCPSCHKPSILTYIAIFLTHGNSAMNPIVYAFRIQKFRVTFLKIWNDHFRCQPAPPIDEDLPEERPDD

[4] = target: T3, hA2B AR (Homo sapiens, UniProt P29275); test: Cyclic AMP accumulation assay, CHO cells expressing hA2B AR; format: cell-based; conditions: at 10 μM, in comparison to full agonist NECA (100%)
T3 sequence (P29275 1-332): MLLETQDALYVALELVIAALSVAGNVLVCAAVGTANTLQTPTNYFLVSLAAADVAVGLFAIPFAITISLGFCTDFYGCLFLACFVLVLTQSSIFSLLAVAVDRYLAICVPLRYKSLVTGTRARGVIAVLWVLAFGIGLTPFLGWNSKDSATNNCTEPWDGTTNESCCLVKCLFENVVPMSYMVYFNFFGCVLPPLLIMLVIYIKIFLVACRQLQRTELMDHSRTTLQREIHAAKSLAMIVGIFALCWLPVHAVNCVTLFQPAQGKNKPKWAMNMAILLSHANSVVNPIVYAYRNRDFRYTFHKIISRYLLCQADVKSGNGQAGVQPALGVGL

[5] = inhibition of radioligand binding at 1 μM

IC50 [1] [nM]	inhibition at 1 µM ([2]; read-out: hA3 % inhibition) [%]	inhibition at 1 µM ([3]; read-out: hA1 % inhibition) [%]	SMILES	hA2B % activation of adenylate cyclase [4] [%]	hA3 % inhibition [2, 5] [%]	hA1 % inhibition [3, 5] [%]
192 ± 90	59.8 ± 4.4	24.9 ± 4.6	CCNC(=O)[C@H]1O[C@@H](n2cnc3c(N)nc(NCCc4ccc(CCC(=O)O)cc4)nc32)[C@H](O)[C@@H]1O [compound 1, 2-[4-(2-carboxylethyl)phenylethylamino]-5′-N-ethylcarboxamidoadenosine, reference compound]			
			CCNC(=O)[C@H]1O[C@@H](n2cnc3c(N)nc(NCCc4ccc(CCC(=O)NCCN)cc4)nc32)[C@H](O)[C@@H]1O [compound 2, 2-[4-(2-Aminoethylaminocarbonylethyl)phenylethylamino]-5′-N-ethylcarboxamidoadenosine, reference compound]	5.5 ± 4.7	85.3 ± 3.2	56.9 ± 9.1
